Results reported in publication PMC12120719, “Targeting Senescence with Apigenin Improves Chemotherapeutic Efficacy and Ameliorates Age‐Related Conditions in Mice” (Advanced Science, 2025).

Biological target: T1, PRDX6 (peroxiredoxin 6) (Homo sapiens, UniProt P30041)
T1 construct: recombinant human PRDX6 (SinoBiological), immobilized on CM5 chip
T1 sequence (P30041 2-224): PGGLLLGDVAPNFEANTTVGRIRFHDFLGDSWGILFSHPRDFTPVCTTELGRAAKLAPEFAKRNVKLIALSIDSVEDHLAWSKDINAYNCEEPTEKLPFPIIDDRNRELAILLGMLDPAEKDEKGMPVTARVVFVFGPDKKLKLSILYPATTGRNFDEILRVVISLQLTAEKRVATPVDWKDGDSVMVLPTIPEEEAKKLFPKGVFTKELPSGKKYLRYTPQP
Test: SPR (Biacore T200); supported by MST (Kd […]), CETSA, DARTS, biotin-probe pulldown
Assay type: binding

## O=c1cc(-c2ccc(O)cc2)oc2cc(O)cc(O)c12 [apigenin, 4′,5,7‐trihydroxyflavone]
  Kd: 237 nM
